According to patent US20080070980A1, “Use Of Beta-Cryptoxanthin” (priority 2004, published 2008):

Key:
[1] = tested on: mouse myoblast cell line C2C12; experiment: protein formation in C2C12 muscle cell cultures (BCA protein assay, Pico-green DNA assay); assay type: cell-based
Method: β-Cyptoxanthin enhances protein formation in muscle cell cultures
C2C12 cells from American Type Culture Collection (ATCC, CRL-1772).
The mouse myoblast cell line C2C12 was seeded into 6 cm^2 cell culture dishes at a density 2×10^5 cells/per well. Cells were cultivated in the presence of Dulbecco's […] (DMEM) containing a final concentration of 10% fetal calf serum, 4500 mg/L glucose, 100 IU/ml Penicillin & 100 μg/ml Streptomycin 2 mM L-Glutamine and 1 mM sodium pyruvate. One day post seeding, cells were supplemented with fresh medium containing β-cryptoxanthin with a final concentration of 0.25 μM or 1 μM or vehicle (tetrahydrofurane). β-cryptoxanthin stock solution was prepared in tetrahydrofurane and the solvent concentration in the media was kept constant at 0.14% for all treatment conditions. Cultivation in medium containing β-cryptoxanthin followed up for a total of 7 consecutive days. The medium was changed every second day. On each day, cells from one well per treatment group were scraped into 0.4 ml of a lysis buffer consisting of 20 mM Tris pH 7.5, NaCl 150 mM, EDTA 1 mM, Nonidet 1%, proteinase inhibitors (Roche Molecular Systems, Mannheim Germany) and sonicated.
Aliquots of 10 μl of this solution were used for total protein, and 2 μl for total DNA analysis. After centrifugation for 5 min at 10000 g, supernatants were used for protein and DNA analysis in the soluble fraction.
Protein was determined using the BCA Protein Assay Reagent (Pierce, Rockford, USA). The Pico-green Assay (Molecular Probes, Leiden, The Netherlands) was used for analysis of DNA content.
The amount of protein was calculated as μg/well or in relation to the amount of cells present in the well, as indirectly determined by the amount of DNA/well.

[2] = tested on: genes involved in protein synthesis; experiment: six weeks feeding study in SKH-1 mice, gene expression by GeneChip DNA microarray in kidney, liver, skin and spleen; assay type: in vivo; conditions: 1200 ppm in feed with sodium cholate
Method: In a six weeks study, β-cryptoxanthin beadlets were mixed into the diet of SKH-1 mice to provide 1200 ppm β-cryptoxanthin in the feed. Further, 0.125 g of sodium cholate per 100 g of feed was added to facilitate the uptake of β-cryptoxanthin. The average β-cryptoxanthin intake was 6.5 mg pro mouse and pro day. After six weeks, the effect of this dose on the overall gene expression was studied. β-cryptoxanthin-mediated gene expression modifications were assessed by GeneChip® DNA microarray technology. Total RNA was extracted from kidney, liver, skin and spleen using the TRIzol® method according to the manufacturer protocol. Reverse Transcription was performed with 10 μg total RNA followed by second strand synthesis of cDNA. The cDNA was then transcribed into multiple cRNA copies and labelled by biotin-coupled nucleotides and fragmented. 10 μg of labelled and fragmented cRNA were hybridized on Affymetrix Mice Genome 430A microarrays as described in the GeneChip® Expression Analysis Technical Manual (Affymetrix, Oxford, UK). For each β-cryptoxanthin-treated tissue, five replicates were performed and compared to six replicates of untreated control mice. […] Subsequently, the microarrays were subjected to laser scanning and the hybridization signals were analyzed with Genedata Expressionist® and Phylosopher® software packages (Genedata, Basel, Switzerland). […]

[3] = 0.25 μM, 1 day in culture, C2C12
[4] = 0.25 μM, 2 days in culture, C2C12
[5] = 0.25 μM, 3 days in culture, C2C12
[6] = 0.25 μM, 4 days in culture, C2C12
[7] = 0.25 μM, 5 days in culture, C2C12
[8] = 0.25 μM, 6 days in culture, C2C12
[9] = 0.25 μM, 7 days in culture, C2C12

CC1=C(/C=C/C(C)=C/C=C/C(C)=C/C=C/C=C(C)/C=C/C=C(C)/C=C/C2=C(C)C[C@@H](O)CC2(C)C)C(C)(C)CCC1 [β-cryptoxanthin]
soluble protein μg/well [1, 3]: 536 μg/well
total protein μg/well [1, 3]: 703.6 μg/well
μg soluble protein/μg DNA [1, 3]: 227 μg soluble protein/μg DNA
soluble protein μg/well [1, 4]: 592 μg/well
total protein μg/well [1, 4]: 753.6 μg/well
μg soluble protein/μg DNA [1, 4]: 244 μg soluble protein/μg DNA
soluble protein μg/well [1, 5]: 626 μg/well
total protein μg/well [1, 5]: 771.2 μg/well
μg soluble protein/μg DNA [1, 5]: 274 μg soluble protein/μg DNA
soluble protein μg/well [1, 6]: 915 μg/well
total protein μg/well [1, 6]: 1136 μg/well
μg soluble protein/μg DNA [1, 6]: 406 μg soluble protein/μg DNA
soluble protein μg/well [1, 7]: 1091 μg/well
total protein μg/well [1, 7]: 1314.4 μg/well
μg soluble protein/μg DNA [1, 7]: 505 μg soluble protein/μg DNA
soluble protein μg/well [1, 8]: 1267 μg/well
total protein μg/well [1, 8]: 1411.2 μg/well
μg soluble protein/μg DNA [1, 8]: 713 μg soluble protein/μg DNA
soluble protein μg/well [1, 9]: 1284 μg/well
total protein μg/well [1, 9]: 1257.2 μg/well
μg soluble protein/μg DNA [1, 9]: 693 μg soluble protein/μg DNA
change in soluble protein ([1]; 0.25 μM, C2C12 (Table 3)): an increase in soluble protein
change in specific amount of protein/μg DNA ([1]; 0.25 μM, C2C12 (Table 4)): an increase in the specific amount of protein/μg DNA
increase in total protein ([1]; 0.25 μM, C2C12, versus vehicle (Table 2)): approx. 1.4 fold
soluble protein μg/well ([1]; 1 μM, 1 day in culture, C2C12): 574 μg/well
total protein μg/well ([1]; 1 μM, 1 day in culture, C2C12): 750 μg/well
μg soluble protein/μg DNA ([1]; 1 μM, 1 day in culture, C2C12): 246 μg soluble protein/μg DNA
soluble protein μg/well ([1]; 1 μM, 2 days in culture, C2C12): 547 μg/well
total protein μg/well ([1]; 1 μM, 2 days in culture, C2C12): 757.2 μg/well
μg soluble protein/μg DNA ([1]; 1 μM, 2 days in culture, C2C12): 231 μg soluble protein/μg DNA
soluble protein μg/well ([1]; 1 μM, 3 days in culture, C2C12): 609 μg/well
total protein μg/well ([1]; 1 μM, 3 days in culture, C2C12): 750 μg/well
μg soluble protein/μg DNA ([1]; 1 μM, 3 days in culture, C2C12): 265 μg soluble protein/μg DNA
soluble protein μg/well ([1]; 1 μM, 4 days in culture, C2C12): 857 μg/well
μg soluble protein/μg DNA ([1]; 1 μM, 4 days in culture, C2C12): 382 μg soluble protein/μg DNA
soluble protein μg/well ([1]; 1 μM, 5 days in culture, C2C12): 1126 μg/well
total protein μg/well ([1]; 1 μM, 5 days in culture, C2C12): 1236 μg/well
μg soluble protein/μg DNA ([1]; 1 μM, 5 days in culture, C2C12): 539 μg soluble protein/μg DNA
soluble protein μg/well ([1]; 1 μM, 6 days in culture, C2C12): 1146 μg/well
total protein μg/well ([1]; 1 μM, 6 days in culture, C2C12): 1232.4 μg/well
μg soluble protein/μg DNA ([1]; 1 μM, 6 days in culture, C2C12): 624 μg soluble protein/μg DNA
soluble protein μg/well ([1]; 1 μM, 7 days in culture, C2C12): 1118 μg/well
total protein μg/well ([1]; 1 μM, 7 days in culture, C2C12): 1193.2 μg/well
μg soluble protein/μg DNA ([1]; 1 μM, 7 days in culture, C2C12): 644 μg soluble protein/μg DNA
effect on protein formation at higher concentration ([1]; 1 μM, C2C12): plateaued
expression of genes involved in protein synthesis in skin, liver, kidney and spleen [2]: up-regulated
